Legend:
[1] = Inhibitory activity against viral attachment
[2] = Effective concentration of the compound against viral replication by Reverse transcriptase

Row | SMILES | IC50 [1] [µM] | EC50 [2] [µM]
1 | O=C(NNC(=O)c1ccccc1SSc1ccccc1C(=O)NNC(=O)c1ccccc1S)c1ccccc1S [Compound 3] | > 100 | 17.8
2 | O=C1NNC(=O)c2ccccc2SSc2ccccc2C(=O)NNC(=O)c2ccccc2SSc2ccccc21 [11,12,13,14,25,26,27,28-octahydrotetrabenzo[c,i,m,s][1,2,11,12,6,7,16,17]tetrathiatetraazacycloicosine-11,14,25,28-tetraone] |  | 6
3 | O=C(NNC(=O)c1ccccc1S)c1ccccc1S [2-Mercapto-benzoic acid N'-(2-mercapto-benzoyl)-hydrazide] | > 100 | 4.3

Source: BindingDB's records for doi:10.1021/jm0201417 (University of Southern California, 2002)
